Assay results reported in ChEMBL document CHEMBL4376867 (J Med Chem, 2020).

Key:
[1] = target: Ribosomal protein S6 kinase alpha-6 (Homo sapiens, UniProt Q9UK32); assay: Inhibition of recombinant full length human His6-tagged RSK4 expressed in baculovirus infected sf21 cells using biotin labelled Ahx-KKLNRTLSFAEPG peptide as substrate preincubated with enzyme for 15 mins followed by substrate addition and further incubated for 30 mins in presence of 10 uM of ATP by TR-FRET assay
[2] = target: T1, Inhibitor of nuclear factor kappa-B kinase subunit epsilon (Homo sapiens, UniProt Q14164); assay: (§1) Inhibition of recombinant full length human C-terminal GST-tagged IKKepsilon expressed in baculovirus expression system using biotin-labelled Ahx-GDEDFSSFAEPG peptide as substrate preincubated with enzyme for 15 mins followed by substrate addition and further incubated for 30 mins in presence of 10 uM of ATP by TR-FRET assay
T1 sequence (Q14164 whole entry): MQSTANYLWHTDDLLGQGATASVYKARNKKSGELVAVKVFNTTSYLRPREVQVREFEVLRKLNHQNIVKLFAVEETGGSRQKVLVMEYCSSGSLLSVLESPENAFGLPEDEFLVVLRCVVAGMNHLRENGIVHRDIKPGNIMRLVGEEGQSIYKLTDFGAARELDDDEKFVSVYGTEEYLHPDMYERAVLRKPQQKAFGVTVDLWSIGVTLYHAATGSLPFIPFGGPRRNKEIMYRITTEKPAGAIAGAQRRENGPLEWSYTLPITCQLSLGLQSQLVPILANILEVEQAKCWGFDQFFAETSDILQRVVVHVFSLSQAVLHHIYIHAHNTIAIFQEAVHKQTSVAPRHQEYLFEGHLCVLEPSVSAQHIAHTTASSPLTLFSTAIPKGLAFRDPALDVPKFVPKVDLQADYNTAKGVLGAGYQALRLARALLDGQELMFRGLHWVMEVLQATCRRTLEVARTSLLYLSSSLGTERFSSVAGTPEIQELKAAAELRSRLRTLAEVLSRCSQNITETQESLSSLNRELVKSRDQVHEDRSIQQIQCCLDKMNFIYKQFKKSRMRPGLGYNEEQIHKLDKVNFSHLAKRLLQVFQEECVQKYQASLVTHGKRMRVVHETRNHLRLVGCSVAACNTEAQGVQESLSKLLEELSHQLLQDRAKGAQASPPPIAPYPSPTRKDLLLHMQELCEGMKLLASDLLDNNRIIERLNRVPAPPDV

[3] = target: CDK9/cyclin T1 (Homo sapiens, UniProt P50750); assay: as §1, with “His-tagged CDK9/CyclinT1” for “C-terminal GST-tagged IKKepsilon”, “Ttds-YISPLKSPYKISEG” for “Ahx-GDEDFSSFAEPG”, “25” for “30”, “mins” for “mins in”
[4] = target: T2, Serine/threonine-protein kinase TBK1 (Homo sapiens, UniProt Q9UHD2); assay: Inhibition of recombinant full length human N-terminal His-tagged TBK1 using biotin-labelled Ahx-GDEDFSSFAEPG peptide as substrate preincubated with enzyme for 15 mins followed by substrate addition and further incubated for 30 mins in presence of 1 mM of ATP by TR-FRET assay
T2 sequence (Q9UHD2 whole entry): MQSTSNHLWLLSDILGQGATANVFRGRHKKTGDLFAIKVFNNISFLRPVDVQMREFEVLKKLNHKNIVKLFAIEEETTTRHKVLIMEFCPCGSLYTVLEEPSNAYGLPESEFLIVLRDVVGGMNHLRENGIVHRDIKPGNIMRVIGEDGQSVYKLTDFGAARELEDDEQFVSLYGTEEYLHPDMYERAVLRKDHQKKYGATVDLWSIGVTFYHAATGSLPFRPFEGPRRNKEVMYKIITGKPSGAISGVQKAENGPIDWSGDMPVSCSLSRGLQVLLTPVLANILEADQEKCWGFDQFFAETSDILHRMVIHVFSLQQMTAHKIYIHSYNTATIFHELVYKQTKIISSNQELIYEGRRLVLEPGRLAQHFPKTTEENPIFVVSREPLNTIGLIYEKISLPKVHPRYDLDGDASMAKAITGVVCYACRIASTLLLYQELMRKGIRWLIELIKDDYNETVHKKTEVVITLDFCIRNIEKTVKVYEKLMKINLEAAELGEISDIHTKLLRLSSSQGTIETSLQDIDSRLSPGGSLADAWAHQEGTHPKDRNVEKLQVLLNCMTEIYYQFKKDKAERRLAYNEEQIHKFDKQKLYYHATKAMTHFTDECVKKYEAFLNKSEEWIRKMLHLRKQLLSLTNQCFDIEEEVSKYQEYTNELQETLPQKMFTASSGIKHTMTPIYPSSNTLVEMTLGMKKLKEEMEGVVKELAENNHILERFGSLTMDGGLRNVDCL

[5] = Apparent permeability of compound across basal to apical membrane in human Caco2 cells at 2 uM in DMSO after 2 hrs by LC-MS/MS analysis; assay type: ADME, cell-based; settings: Caco-2
[6] = Efflux ratio of apparent permeability across basolateral to apical membrane over apical to basolateral membrane in human Caco2 cells; assay type: ADME, cell-based; settings: Caco-2
[7] = Apparent permeability of compound across apical to basal membrane in human Caco2 cells at 2 uM in DMSO after 2 hrs by LC-MS/MS analysis; assay type: ADME, cell-based; settings: Caco-2
[8] = target: T3, Receptor-type tyrosine-protein kinase FLT3 (Homo sapiens, UniProt P36888); assay: Inhibition of recombinant human N-terminal GST-tagged FLT3 (564 to end residues) expressed in sf21 cells using biotin labelled Ahx-GGEEEEYFELVKKKK peptide as substrate preincubated with enzyme for 15 mins followed by substrate addition and further incubated for 45 mins in presence of 10 uM of ATP by TR-FRET assay
T3 sequence (P36888 whole entry): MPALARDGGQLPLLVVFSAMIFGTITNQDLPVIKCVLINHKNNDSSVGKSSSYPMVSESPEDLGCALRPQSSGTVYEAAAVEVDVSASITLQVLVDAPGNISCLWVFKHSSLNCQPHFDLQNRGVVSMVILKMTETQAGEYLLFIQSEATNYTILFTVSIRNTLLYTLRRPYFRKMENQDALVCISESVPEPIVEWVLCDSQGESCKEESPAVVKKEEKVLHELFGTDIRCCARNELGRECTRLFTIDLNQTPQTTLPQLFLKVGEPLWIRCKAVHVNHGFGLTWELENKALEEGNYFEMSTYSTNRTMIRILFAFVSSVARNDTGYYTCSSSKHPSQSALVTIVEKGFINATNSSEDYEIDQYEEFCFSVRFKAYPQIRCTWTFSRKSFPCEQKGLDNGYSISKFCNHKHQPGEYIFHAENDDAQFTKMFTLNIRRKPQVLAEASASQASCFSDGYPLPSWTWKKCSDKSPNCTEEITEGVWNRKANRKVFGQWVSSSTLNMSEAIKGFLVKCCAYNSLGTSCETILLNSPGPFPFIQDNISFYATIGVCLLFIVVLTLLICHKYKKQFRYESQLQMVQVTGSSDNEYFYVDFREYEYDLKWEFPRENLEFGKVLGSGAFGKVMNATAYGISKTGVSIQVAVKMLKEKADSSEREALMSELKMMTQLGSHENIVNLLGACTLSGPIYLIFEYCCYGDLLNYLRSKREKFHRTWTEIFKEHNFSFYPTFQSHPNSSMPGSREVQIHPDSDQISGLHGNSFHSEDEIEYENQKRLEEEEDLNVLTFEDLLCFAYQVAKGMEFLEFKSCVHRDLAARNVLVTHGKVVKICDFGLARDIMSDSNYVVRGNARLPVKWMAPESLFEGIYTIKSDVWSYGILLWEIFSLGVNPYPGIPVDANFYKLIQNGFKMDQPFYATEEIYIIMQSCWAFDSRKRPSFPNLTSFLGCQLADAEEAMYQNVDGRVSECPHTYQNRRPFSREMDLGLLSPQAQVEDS

[9] = target: T4, IKK epsilon/TBK1 (Homo sapiens, UniProt Q14164+Q9UHD2); assay: Inhibition of IKKepsilon/TBK1 in human MDB-MB-231 cells transduced with lentiviral vector expressing human IRF3 assessed as decrease in poly(I:C)-stimulated IRF3 phosphorylation at S385/386 residues preincubated for 1 hr followed by poly(I:C) addition and measured after 1 hr; assay type: cell-based
T4 sequence (Q14164 whole entry): T1 sequence (Q14164 whole entry)
T4 sequence (Q9UHD2 whole entry): T2 sequence (Q9UHD2 whole entry)

[10] = test system: SK-MEL-2; assay: Antiproliferative activity against human SK-MEL-2 cells harboring NRAS/TP53 mutation assessed as reduction in cell viability after 96 hrs by CellTiter-Glo luminescence assay; assay type: functional, cell-based; settings: SK-MEL-2, 96 h
[11] = test system: ACHN; assay: Antiproliferative activity against human ACHN cells harboring CDKN2A mutation assessed as reduction in cell viability after 96 hrs by CellTiter-Glo luminescence assay; assay type: functional, cell-based
[12] = target: T2, Serine/threonine-protein kinase TBK1
[13] = target: T5, Serine/threonine-protein kinase 17A (Homo sapiens, UniProt Q9UEE5); assay: Inhibition of wild-type human partial length DRAK1 (R32 to E363 residues) expressed in bacterial expression system by Kinomescan method
T5 sequence (Q9UEE5 whole entry): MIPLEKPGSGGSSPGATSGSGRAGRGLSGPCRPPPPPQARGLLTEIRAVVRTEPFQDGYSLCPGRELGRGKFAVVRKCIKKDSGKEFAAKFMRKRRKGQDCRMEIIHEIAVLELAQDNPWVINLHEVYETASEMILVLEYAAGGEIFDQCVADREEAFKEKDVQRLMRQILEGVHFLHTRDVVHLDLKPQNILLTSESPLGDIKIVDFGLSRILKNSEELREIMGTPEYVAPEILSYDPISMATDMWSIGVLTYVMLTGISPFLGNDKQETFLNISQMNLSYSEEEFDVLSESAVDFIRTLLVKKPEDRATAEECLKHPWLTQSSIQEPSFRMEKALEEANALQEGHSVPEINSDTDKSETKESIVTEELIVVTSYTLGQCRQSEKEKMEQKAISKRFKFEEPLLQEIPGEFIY

Chain of CDK9/cyclin T1 (O60563 whole entry): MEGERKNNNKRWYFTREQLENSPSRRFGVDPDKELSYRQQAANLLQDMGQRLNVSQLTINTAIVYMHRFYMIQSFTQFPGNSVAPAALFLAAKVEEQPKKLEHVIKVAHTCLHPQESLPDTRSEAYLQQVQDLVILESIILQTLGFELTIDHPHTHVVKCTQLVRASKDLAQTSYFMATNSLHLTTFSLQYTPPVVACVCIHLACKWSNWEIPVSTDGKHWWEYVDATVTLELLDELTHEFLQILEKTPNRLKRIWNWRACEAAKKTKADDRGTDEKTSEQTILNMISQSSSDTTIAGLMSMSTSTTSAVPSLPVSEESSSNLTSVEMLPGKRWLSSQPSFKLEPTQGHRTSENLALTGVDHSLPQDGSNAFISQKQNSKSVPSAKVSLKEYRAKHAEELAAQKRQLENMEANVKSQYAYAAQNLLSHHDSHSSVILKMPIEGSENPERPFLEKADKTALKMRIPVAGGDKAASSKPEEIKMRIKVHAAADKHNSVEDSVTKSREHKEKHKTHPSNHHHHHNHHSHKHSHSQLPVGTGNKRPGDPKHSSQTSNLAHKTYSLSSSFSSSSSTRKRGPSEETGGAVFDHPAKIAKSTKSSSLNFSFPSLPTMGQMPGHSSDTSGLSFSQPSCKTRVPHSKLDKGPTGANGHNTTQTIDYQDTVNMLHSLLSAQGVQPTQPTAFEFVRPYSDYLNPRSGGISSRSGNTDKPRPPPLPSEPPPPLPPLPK
Chain of CDK9/cyclin T1 (P50750 whole entry): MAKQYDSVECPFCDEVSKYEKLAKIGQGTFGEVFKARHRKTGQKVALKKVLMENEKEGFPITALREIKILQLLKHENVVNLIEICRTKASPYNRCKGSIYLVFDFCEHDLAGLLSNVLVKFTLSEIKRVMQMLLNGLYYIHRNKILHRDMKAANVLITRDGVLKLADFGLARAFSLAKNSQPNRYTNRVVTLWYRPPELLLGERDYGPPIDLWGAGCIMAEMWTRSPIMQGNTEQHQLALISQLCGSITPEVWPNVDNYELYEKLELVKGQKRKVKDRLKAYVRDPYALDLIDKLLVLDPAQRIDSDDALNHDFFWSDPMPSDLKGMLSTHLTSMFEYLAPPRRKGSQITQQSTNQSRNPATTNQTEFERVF
Chain of Ribosomal protein S6 kinase alpha-6 (Q9UK32 whole entry): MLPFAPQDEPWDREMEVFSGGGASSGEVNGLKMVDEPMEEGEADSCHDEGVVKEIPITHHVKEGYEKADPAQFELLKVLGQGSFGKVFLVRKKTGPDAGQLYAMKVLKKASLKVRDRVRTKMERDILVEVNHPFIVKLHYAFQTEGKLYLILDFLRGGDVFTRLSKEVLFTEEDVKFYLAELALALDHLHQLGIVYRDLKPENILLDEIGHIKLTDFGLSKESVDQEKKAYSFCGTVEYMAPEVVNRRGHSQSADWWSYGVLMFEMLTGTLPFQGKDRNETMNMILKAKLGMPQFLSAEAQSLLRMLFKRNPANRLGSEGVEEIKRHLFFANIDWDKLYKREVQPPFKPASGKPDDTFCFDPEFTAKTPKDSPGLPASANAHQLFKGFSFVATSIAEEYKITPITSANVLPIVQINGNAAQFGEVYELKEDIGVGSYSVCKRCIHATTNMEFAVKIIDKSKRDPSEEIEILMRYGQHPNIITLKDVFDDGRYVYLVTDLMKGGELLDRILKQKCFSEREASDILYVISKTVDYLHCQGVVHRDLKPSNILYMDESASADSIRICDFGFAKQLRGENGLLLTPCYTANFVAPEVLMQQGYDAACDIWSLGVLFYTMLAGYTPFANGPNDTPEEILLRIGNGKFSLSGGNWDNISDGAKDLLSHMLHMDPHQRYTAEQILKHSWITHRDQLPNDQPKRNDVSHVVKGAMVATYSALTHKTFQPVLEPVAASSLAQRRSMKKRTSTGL

Row | Structure (SMILES) | IC50 [1] [nM] | IC50 [2] [nM] | IC50 [3] [nM] | IC50 [4] [nM] | Papp B→A at 2 h, 2 µM [5] [×10⁻⁶ cm/s] | efflux ratio [6] | Papp A→B at 2 h, 2 µM [7] [×10⁻⁶ cm/s] | IC50 [8] [nM] | IC50 [9] [nM] | IC50 [10] [nM] | IC50 [11] [nM] | IC50 [12] [nM] | IC50 [13] [nM]
1 | CCn1cc(-c2ccc3nc(Nc4cc(CN5CCN(C(=O)CC(F)(F)F)CC5)ccn4)[nH]c3c2)cn1 | 8850 | 98 | 1460 | 530 | 17.3 | 10 | 1.7 | 17 | 1580 |  |  |  | 
2 | O=C(NCC1CC1)c1ccc2nc(Nc3cc(CN4CCN(C(=O)CC(F)(F)F)CC4)ccn3)[nH]c2c1 |  | 80 | > 20000 | 1390 | 15.5 | 40 | 0.39 |  |  | 3360 | > 33000 | 93 | 
3 | C[C@H](c1ccnc(Nc2nc3ccc(-c4cnn(CC5CCC5)c4)cc3[nH]2)c1)N1CCN(C(=O)CC(F)(F)F)CC1 | 325 | 4 | > 20000 | 6 |  |  |  | 357 | 93 | 3710 | 5420 | 2 | 15
4 | N#Cc1ccc2nc(Nc3cc(CN4CCN(C(=O)CC(F)(F)F)CC4)ccn3)[nH]c2c1 |  | 17 | 5 | 618 | 26.8 | 8.3 | 3.2 |  | 2030 |  |  | 29 | 
